The results in this text go back to PubChem BioAssay (NCI).

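Tested at 5 concentrations; 48 h exposure; 96-well plates; endpoints linearly interpolated, else capped at highest concentration. The concentration for 50% growth inhibition is given as GI50. The concentration for full growth arrest is given as TGI.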

Some test systems named below: A498 renal; ACHN renal; HCT-15 colon; NCI-H226 lung; OVCAR-3 ovarian; RPMI-8226 leukemia; UACC-257 melanoma; SK-MEL-5 melanoma; SNB-75 CNS.
Holding throughout (assay): DTP human tumour cell line panel, 48 h

By TGI is commonly meant the concentration at which net growth stops. A higher TGI goes with lower sensitivity of the cells. With `CN(CC1NCCCC1O)C12CC3CC(CC(C3)C1)C2` (stereo not given), the TGI in the test with A498 renal, with ACHN renal, in the test on HCT-15 colon, with NCI-H226 lung, in the test on OVCAR-3 ovarian and with RPMI-8226 leukemia was more than 100 µM throughout. Besides, in the test on UACC-257 melanoma, the TGI was more than 100 µM.
Consider `O=C1C(Cl)C(c2ccc([N+](=O)[O-])cc2)N1n1cnc2ccccc2c1=O` (stereo not given), for which the TGI with ACHN renal was more than 100 µM; in the test with HCT-15 colon, more than 100 µM; in the test with NCI-H226 lung, more than 100 µM; with OVCAR-3 ovarian, more than 100 µM; in the test on SK-MEL-5 melanoma, more than 100 µM; in the test with SNB-75 CNS, 39 µM. Besides, the TGI with UACC-257 melanoma is more than 100 µM.
For `CN(CCCCN)c1ccc2c(=O)[nH][nH]c(=O)c2c1`, the TGI in the test on A498 renal, in the test on ACHN renal, with HCT-15 colon, in the test with NCI-H226 lung, in the test with OVCAR-3 ovarian and with RPMI-8226 leukemia was more than 100 µM each time. For the same compound, the TGI in the test on SNB-75 CNS and in the test with UACC-257 melanoma was more than 100 µM each time.
For orientation: GI50 means the concentration giving 50% growth inhibition. As for `COc1cc(OC)c(/C=C/C(=O)c2c(O)cc(OC)c(C3CCN(C)CC3)c2OC)c(OC)c1`, the GI50 is 1.6 µM in the test on A498 renal; 1.58 µM in the test on ACHN renal; 1.31 µM with HCT-15 colon; 1.81 µM in the test on OVCAR-3 ovarian; 1.11 µM in the test with RPMI-8226 leukemia; 1.64 µM in the test with SK-MEL-5 melanoma. For the same compound, the GI50 was 1.39 µM in the test with SNB-75 CNS and 1.46 µM in the test on UACC-257 melanoma. Besides, the TGI in the test on A498 renal amounted to 3.02 µM; with ACHN renal, 2.98 µM; in the test with HCT-15 colon, 2.8 µM; in the test with OVCAR-3 ovarian, 3.32 µM; with RPMI-8226 leukemia, 2.83 µM; in the test on SK-MEL-5 melanoma, 3.07 µM. Besides, the TGI with SNB-75 CNS was determined as 2.86 µM; in the test with UACC-257 melanoma, 2.77 µM.
Consider `O=C(CC1(O)C(=O)Nc2ccc([N+](=O)[O-])cc21)c1ccc(Br)cc1` (stereo not given), for which the concentration for total growth inhibition (TGI) in the test with A498 renal is 50.3 µM; with ACHN renal, more than 100 µM; in the test with HCT-15 colon it was more than 100 µM; in the test with NCI-H226 lung, more than 100 µM; in the test on OVCAR-3 ovarian, more than 100 µM; with RPMI-8226 leukemia, more than 100 µM. Further, the values for the TGI with SNB-75 CNS and in the test with UACC-257 melanoma were 76.7 µM and more than 100 µM, respectively.
As for `C=CCCCC(O)c1ccc(C(O)c2cnc3ccccc3c2)o1` (stereo not given), the GI50 was 25.4 µM in the test with ACHN renal; 31.4 µM with HCT-15 colon; 30.8 µM in the test on NCI-H226 lung; 88.2 µM in the test on OVCAR-3 ovarian; 17.9 µM in the test with RPMI-8226 leukemia; 9.52 µM with SK-MEL-5 melanoma. Moreover, the GI50 was 99.2 µM with SNB-75 CNS and 18.8 µM in the test with UACC-257 melanoma. Besides, the TGI with ACHN renal was 61.6 µM; with HCT-15 colon, more than 100 µM; in the test with NCI-H226 lung, 71.5 µM; in the test on OVCAR-3 ovarian, more than 100 µM; with RPMI-8226 leukemia, 72.2 µM; with SK-MEL-5 melanoma, 22.4 µM. Further, the TGI in the test on SNB-75 CNS is more than 100 µM; with UACC-257 melanoma, 61.4 µM.
In the case of `Cn1c2c(c3ccccc31)CCN(CCCN1CCN(c3ccccc3)CC1)C2=O`, the total growth inhibition concentration (TGI) in the test on A498 renal amounted to 32.8 µM; in the test with ACHN renal, 44.7 µM; in the test with HCT-15 colon, 50 µM; with RPMI-8226 leukemia, 36.7 µM; in the test with SK-MEL-5 melanoma it was 42.1 µM.
For the compound `C1=CC(=NN=P(c2ccccc2)(c2ccccc2)c2ccccc2)C=C1`, the TGI with ACHN renal, in the test on HCT-15 colon, in the test on OVCAR-3 ovarian, with RPMI-8226 leukemia, in the test with SK-MEL-5 melanoma and in the test on SNB-75 CNS was more than 100 µM throughout. In the test with UACC-257 melanoma, the TGI is more than 100 µM.
For `CN1c2ccccc2S(=O)(=O)n2c(COc3ccccc3)nnc21`, the TGI in the test with A498 renal, in the test on ACHN renal, in the test on HCT-15 colon, in the test with NCI-H226 lung, in the test on OVCAR-3 ovarian and in the test with SK-MEL-5 melanoma was more than 100 µM in each case. Also, the TGI in the test with UACC-257 melanoma was more than 100 µM.
Turning to `COc1cc2oc(-c3ccc(O)cc3)cc(=O)c2c(OC)c1O`, the TGI in the test on ACHN renal, in the test on HCT-15 colon, in the test with NCI-H226 lung, in the test on OVCAR-3 ovarian, with RPMI-8226 leukemia and in the test with SK-MEL-5 melanoma was more than 100 µM throughout. The TGI with SNB-75 CNS was 55.1 µM; in the test on UACC-257 melanoma, more than 100 µM.
`C=C(C)[C@@H]1CC[C@]2(C(=O)N3CCN(C)CC3)CC[C@]3(C)[C@H](CC[C@@H]4[C@@]5(C)CC[C@H](O)C(C)(C)[C@@H]5CC[C@]43C)[C@@H]12`: the GI50 was 1.5 µM with A498 renal; 1.69 µM with ACHN renal; 1.69 µM in the test on HCT-15 colon; 2.07 µM in the test on NCI-H226 lung; 1.9 µM with OVCAR-3 ovarian; 1.72 µM in the test on SK-MEL-5 melanoma. Moreover, the GI50 was 1.64 µM in the test on SNB-75 CNS and 1.81 µM with UACC-257 melanoma. In addition, the TGI with A498 renal stood at 2.9 µM; in the test on ACHN renal it was 3.12 µM; with HCT-15 colon it was 3.86 µM; with NCI-H226 lung it was 5 µM; in the test on OVCAR-3 ovarian it was 3.49 µM; in the test with SK-MEL-5 melanoma it was 3.15 µM. The figures for the TGI in the test with SNB-75 CNS and in the test with UACC-257 melanoma were 3.27 µM and 3.57 µM, respectively.
